The source made the active and inactive calls.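 The calls were made as follows: active = compounds whose fitted half-maximal toxic concentration is no more than twice their top tested dose; inconclusive = flat fit with 30 to 70% signal loss, or poor fit; inactive = the rest.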
system: not listed separately; test: mammalian cell viability loss – Alamar Blue, cherry-pick, cytotoxicity control for antifungal single agent project, dose response (AID 588634); settings: NIH-3T3 fibroblast viability, Alamar Blue fluorescence, 48 h; at 26 µM (top of the series)

For C(C#CCCCCCCCCC[n+]1ccccc1)#CCCCCCCCCC[n+]1ccccc1, the activity change, negative = toxicity was -33.3% (inactive).
In the case of CCOC(=O)N1C(=O)C2(CCCCC2)N(c2ccc(C)cc2)C1=S, the activity change, negative = toxicity is reported as -0.005% (inactive).
In the case of CCN1/C(=C/C=C/c2oc3ccc(-c4ccccc4)cc3[n+]2CC)Oc2ccc(-c3ccccc3)cc21, the activity change, negative = toxicity is reported as 360% (inactive).

system: NIH-3T3 fibroblast viability, Alamar Blue fluorescence, 48 h; test: as above; settings: not given

First: O=[N+]([O-])c1cc(CN2CCN(c3ccccc3)CC2)c(O)c2ncccc12
Second: Oc1c(CN2CCN(c3ccccc3)CC2)cc(Br)c2cccnc12
The AC50 of the first is 13-fold lower: 109 nM for the first, 1390 nM for the second.

Compared with Cc1ccc(C(=O)c2coc3c2C(=O)C(=O)c2ccccc2-3)cc1, O=c1ccc(N=Nc2ccccc2)ccc1O is 5.1-fold lower in AC50: 8170 nM for the first, 1600 nM for the second.

Oc1c(C(Nc2nc3ccccc3s2)c2ccco2)ccc2cccnc12 (stereo not drawn) and Oc1c(C(Nc2nccs2)c2ccc(C(F)(F)F)cc2)ccc2cccnc12 (stereo not drawn) are within 1.5-fold of each other in AC50: 1850 nM for the first, 1740 nM for the second.

Going from O=C(Oc1c(Cl)cc(Cl)c2cccnc12)c1cccs1 to O=C(Oc1c(Cl)cc(Cl)c2cccnc12)c1ccco1, the AC50 falls from 659 nM to 409 nM (1.6-fold).

Oc1c(C(c2ccc(Cl)cc2)N2CCCC2)cc(Cl)c2cccnc12 (stereo not drawn) and CN1CCN(C(c2ccc(C(F)(F)F)cc2)c2cc(Cl)c3cccnc3c2O)CC1 (stereo not drawn) are within 1.5-fold of each other in AC50: 1470 nM for the first, 1960 nM for the second.

O=C(N/N=C/c1cc2c3c(c1O)CCCN3CCC2)c1ccccc1O and O=C(N/N=C/c1c(O)ccc2ccccc12)c1cccc(C(F)(F)F)c1 are within 1.5-fold of each other in AC50: 6370 nM for the first, 4340 nM for the second.

CCCCC(=O)NC(c1ccc(N(CC)CC)cc1)c1ccc2cccnc2c1O (stereo not drawn) and CCCCC(=O)NC(c1ccc(Cl)cc1)c1ccc2cccnc2c1O (stereo not drawn) are within 1.5-fold of each other in AC50: 1250 nM for the first, 1090 nM for the second.

Compared with CCN(CC)S(=O)(=O)c1cc(OC)ccc1N=Nc1ccc(O)c2ncccc12, COc1ccc(C)cc1N=Nc1ccc(O)c2ncccc12 is 2.5-fold lower in AC50: 753 nM for the first, 303 nM for the second.

CCOc1ccc(N=Nc2ccc(O)c3ncccc23)cc1 and COc1cccc(N=Nc2ccc(O)c3ncccc23)c1 are within 1.5-fold of each other in AC50: 289 nM for the first, 279 nM for the second.

C/C(=N\NC(=O)c1cc2ccccc2cc1O)c1ccccn1 and COc1cccc(N=Nc2ccc3cccnc3c2O)c1 are within 1.5-fold of each other in AC50: 1040 nM for the first, 712 nM for the second.

First: CN1CCN(C(c2ccc(C(F)(F)F)cc2)c2ccc3cccnc3c2O)CC1 (stereo not drawn)
Second: Cc1cc(NC(c2ccc(Cl)cc2)c2ccc3cccnc3c2O)no1 (stereo not drawn)
The AC50 of the first is 4.3-fold lower: 852 nM for the first, 3660 nM for the second.

Compared with O=Nc1c(-c2cccc([N+](=O)[O-])c2)nc2ncccn12, O=[N+]([O-])c1ccc(O)c(/C=N/Nc2ccc(Cl)nn2)c1 is 6.2-fold lower in AC50: 9990 nM for the first, 1600 nM for the second.

Compared with Oc1ccc(N=Nc2ccc3c(c2)OCCO3)c2cccnc12, Oc1ccc(N=Nc2ccc3c(c2)OCCO3)c2ncccc12 is 4.5-fold lower in AC50: 3140 nM for the first, 702 nM for the second.

First: CCCCC(=O)NC(c1ccco1)c1cc(Cl)c2cccnc2c1O (stereo not drawn)
Second: Oc1c(CN2CCN(c3ccc(F)cc3)CC2)cc(Cl)c2cccnc12
The AC50 of the first is 1.8-fold lower: 705 nM for the first, 1290 nM for the second.

Compared with COc1cccc(/C=N/Nc2ncnc3scc(-c4ccccc4)c23)c1O, O=Cc1ccc(O)c2ncccc12 is 2.3-fold lower in AC50: 2070 nM for the first, 913 nM for the second.
